From patent US6855710B2, “Substituted indolines with an inhibitory effect on various kinases and complexes of CDKs” (Boehringer Ingelheim Pharma KG, priority 1998, dated 2005)

**Q.** For `CC(C)S(=O)(=O)N(CCN(C)C)c1ccc(N/C(=C2\C(=O)Nc3ccccc32)c2ccccc2)cc1` [Example 309, (Z)-3-{1-[4-(N-(2-dimethylaminoethyl)-N-isopropylsulphonyl-amino)-phenylamino]-1-phenyl-methylidene}-2-indolinone], which melting point is on record?
**A.** The melting point was 247 °C.

**Q.** For `COC1CCN(CCc2ccc(N/C(=C3\C(=O)Nc4ccc([N+](=O)[O-])cc43)c3ccccc3)cc2)CC1` [Example 261, (Z)-3-{1-[4-(2-(4-methoxypiperidino)-ethyl)-phenylamino]-1-phenyl-methylidene}-5-nitro-2-indolinone], which melting point is on record?
**A.** Its melting point is 212 to 214 °C.

**Q.** With `O=C1Nc2ccc([N+](=O)[O-])cc2/C1=C(/Nc1ccc(CCN2CC=CCC2)cc1)c1ccccc1` [Example 269, (Z)-3-{1-[4-(2-(3,6-Dihydro-2H-pyridin-1-yl)-ethyl)-phenylamino]-1-phenyl-methylidene}-5-nitro-2-indolinone] as the compound, how does the melting point read?
**A.** The melting point was 249 to 254 °C (dec.).

**Q.** With `O=C1Nc2ccc([N+](=O)[O-])cc2/C1=C(/Nc1ccccc1)c1ccc(CN2C(=O)c3ccccc3C2=O)cc1` [Example 153, (Z)-3-[1-phenylamino-1-(4-phthalimidomethyl-phenyl)-methylidene]-5-nitro-2-indolinone] as the compound, how does the melting point read?
**A.** The melting point was 334 to 336 °C (dec.).

**Q.** For `CC(C)(C)OC(=O)NCCc1ccc(N/C(=C2\C(=O)Nc3ccc([N+](=O)[O-])cc32)c2ccc(CN)cc2)cc1` [Example 155, (Z)-3-{1-[4-(2-tert.butoxycarbonylamino-ethyl)-phenylamino]-1-(4-aminomethyl-phenyl)-methylidene}-5-nitro-2-indolinone], which melting point is on record?
**A.** The melting point was 215 to 217 °C (dec.).

**Q.** For `CNc1cccc(N/C(=C2\C(=O)Nc3ccccc32)c2ccccc2)c1` [Example 37, (Z)-3-[1-(3-methylamino-phenylamino)-1-phenyl-methylidene]-2-indolinone], which melting point is on record?
**A.** Its melting point is 247 to 248 °C.

**Q.** Which melting point does the source give for `CCCC(=O)N(CCN1CCOCC1)c1ccc(N/C(=C2\C(=O)Nc3ccc([N+](=O)[O-])cc32)c2ccccc2)cc1` [Example 337, (Z)-3-{1-[4-(N-(2-morpholinoethyl)-N-propylcarbonyl-amino)-phenylamino]-1-phenyl-methylidene}-5-nitro-2-indolinone] here?
**A.** The melting point was 228 °C.

**Q.** With `O=C1Nc2ccc([N+](=O)[O-])cc2/C1=C(/Nc1ccc(CCN2CCC(C(=O)O)CC2)cc1)c1ccccc1` [Example 263, (Z)-3-{1-[4-(2-(4-carboxypiperidino)-ethyl)-phenylamino]-1-phenyl-methylidene}-5-nitro-2-indolinone] as the compound, how does the melting point read?
**A.** The melting point was 287 to 288 °C.

**Q.** For `NCc1ccc(/C(Nc2ccccc2)=C2/C(=O)Nc3ccc([N+](=O)[O-])cc32)cc1` [Example 154, (Z)-3-[1-phenylamino-1-(4-aminomethyl-phenyl)-methylidene]-5-nitro-2-indolinone], which melting point is on record?
**A.** Its melting point is 332 °C (dec.).

**Q.** With `O=C1Nc2ccc([N+](=O)[O-])cc2/C1=C(/Nc1ccc(CN2CCC(O)CC2)cc1)c1ccccc1` [Example 168, (Z)-3-{1-[4-(4-hydroxypiperidinomethyl)-phenylamino]-1-phenyl-methylidene}-5-nitro-2-indolinone] as the compound, how does the melting point read?
**A.** The melting point was 155 °C.

**Q.** Which melting point does the source give for `O=C1Nc2ccc([N+](=O)[O-])cc2/C1=C(/Nc1ccc(CN2CCC2)cc1)c1ccccc1` [Example 273, (Z)-3-{1-[4-(Azetidin-1-yl-methyl)-phenylamino]-1-phenyl-methylidene}-5-nitro-2-indolinone] here?
**A.** Its melting point is 228 to 229 °C.

**Q.** With `CNC(=O)CN(C(=O)c1ccccc1)c1ccc(N/C(=C2\C(=O)Nc3ccccc32)c2ccccc2)cc1` [Example 362, (Z)-3-{1-[4-(N-methylaminocarbonylmethyl-N-benzoyl-amino)-phenylamino]-1-phenyl-methylidene}-2-indolinone] as the compound, how does the melting point read?
**A.** The melting point was 260 to 262 °C.

**Q.** Which melting point does the source give for `Cl.O=C1Nc2ccc([N+](=O)[O-])cc2/C1=C(/Nc1ccc(CNCc2ccccc2)cc1)c1ccccc1` here?
**A.** The melting point was 298 to 300 °C.

**Q.** For `CCOC(=O)CCNCc1ccc(N/C(=C2\C(=O)Nc3ccc([N+](=O)[O-])cc32)c2ccccc2)cc1` [Example 241, (Z)-3-{1-[4-(2-ethoxycarbonyl-ethylaminomethyl)-phenylamino]-1-phenyl-methylidene}-5-nitro-2-indolinone], which melting point is on record?
**A.** Its melting point is 129 to 131 °C.

**Q.** With `CNC(=O)CN(c1ccc(N/C(=C2\C(=O)Nc3ccccc32)c2ccccc2)cc1)S(C)(=O)=O` [Example 192, (Z)-3-{1-[4-(N-methylaminocarbonylmethyl-N-methylsulphonyl-amino)-phenylamino]-1-phenyl-methylidene}-2-indolinone] as the compound, how does the melting point read?
**A.** Its melting point is 268 to 270 °C.

**Q.** For `CC(=O)NCc1ccc(/C(Nc2cccc(N(CCN(C)C)S(C)(=O)=O)c2)=C2/C(=O)Nc3ccccc32)cc1` [Example 423, (Z)-3-{1-[3-(N-(2-dimethylaminoethyl)-N-methylsulphonyl-amino)-phenylamino]-1-(4-acetylaminomethyl-phenyl)-methylidene}-2-indolinone], which melting point is on record?
**A.** Its melting point is 180 °C.

**Q.** Which melting point does the source give for `CCCCN(CCCC)Cc1ccc(N/C(=C2\C(=O)Nc3ccc([N+](=O)[O-])cc32)c2ccccc2)cc1` [Example 165, (Z)-3-[1-(4-Dibutylaminomethyl-phenylamino)-1-phenyl-methylidene]-5-nitro-2-indolinone] here?
**A.** Its melting point is 175 °C.

**Q.** With `CCOC(=O)Cc1cccc(N/C(=C2\C(=O)Nc3ccccc32)c2ccccc2)c1` [Example 11, (Z)-3-[1-(3-ethoxycarbonylmethyl-phenylamino)-1-phenyl-methylidene]-2-indolinone] as the compound, how does the melting point read?
**A.** The melting point was 178 to 181 °C.

**Q.** With `CNC(=O)C1CCN(Cc2ccc(N/C(=C3\C(=O)Nc4ccc([N+](=O)[O-])cc43)c3ccccc3)cc2)CC1` [Example 248, (Z)-3-{1-[4-(4-methylaminocarbonyl-piperidinomethyl)-phenylamino]-1-phenyl-methylidene}-5-nitro-2-indolinone] as the compound, how does the melting point read?
**A.** Its melting point is 263 to 265 °C.

**Q.** With `CC(C)C(=O)N(CCN(C)C)c1ccc(N/C(=C2\C(=O)Nc3ccccc32)c2ccccc2)cc1` [Example 342, (Z)-3-{1-[4-(N-(2-dimethylaminoethyl)-N-isopropylcarbonyl-amino)-phenylamino]-1-phenyl-methylidene}-2-indolinone] as the compound, how does the melting point read?
**A.** Its melting point is 280 to 282 °C.

**Q.** With `O=C1Nc2ccc([N+](=O)[O-])cc2/C1=C(/Nc1ccc(CN2CCC(C(=O)O)CC2)cc1)c1ccccc1` [Example 177, (Z)-3-{1-[4-(4-carboxypiperidinomethyl)-phenylamino]-1-phenyl-methylidene}-5-nitro-2-indolinone] as the compound, how does the melting point read?
**A.** The melting point was 207 °C.

**Q.** Which melting point does the source give for `CCOC(=O)COc1ccc(N/C(=C2\C(=O)Nc3ccccc32)c2ccccc2)cc1` [Example 289, (Z)-3-{1-[4-(ethyloxycarbonylmethyloxy)-phenylamino]-1-phenyl-methylidene}-2-indolinone] here?
**A.** Its melting point is 175 to 177 °C.

**Q.** With `CS(=O)(=O)Nc1cccc(N/C(=C2\C(=O)Nc3ccccc32)c2ccccc2)c1` [Example 183, (Z)-3-[1-(3-methylsulphonylamino-phenylamino)-1-phenyl-methylidene]-2-indolinone] as the compound, how does the melting point read?
**A.** Its melting point is 275 °C.

**Q.** Which melting point does the source give for `CC(C)C(=O)N(CCN1CCOCC1)c1ccc(N/C(=C2\C(=O)Nc3ccc([N+](=O)[O-])cc32)c2ccccc2)cc1` [Example 336, (Z)-3-{1-[4-(N-(2-morpholinoethyl)-N-isopropylcarbonyl-amino)-phenylamino]-1-phenyl-methylidene}-5-nitro-2-indolinone] here?
**A.** Its melting point is 254 °C.

**Q.** With `O=C(O)CNCCc1ccc(N/C(=C2\C(=O)Nc3ccc([N+](=O)[O-])cc32)c2ccccc2)cc1` [Example 258, (Z)-3-{1-[4-(2-carboxymethylamino-ethyl)-phenylamino]-1-phenyl-methylidene}-5-nitro-2-indolinone] as the compound, how does the melting point read?
**A.** The melting point was 242 to 243 °C (dec.).

**Q.** For `CN(C)C(=O)c1cccc(N/C(=C2\C(=O)Nc3ccccc32)c2ccccc2)c1` [Example 22, (Z)-3-[1-(3-dimethylaminocarbonyl-phenylamino)-1-phenyl-methylidene]-2-indolinone], which melting point is on record?
**A.** Its melting point is 261 to 263 °C.

**Q.** With `Cc1ccc(S(=O)(=O)N(CC(=O)N(C)C)c2ccc(N/C(=C3\C(=O)Nc4ccc([N+](=O)[O-])cc43)c3ccccc3)cc2)cc1` [Example 210, (Z)-3-{1-[4-(N-dimethylaminocarbonylmethyl-N-(p-tolylsulphonyl)-amino)-phenylamino]-1-phenyl-methylidene}-5-nitro-2-indolinone] as the compound, how does the melting point read?
**A.** Its melting point is 198 to 200 °C.

**Q.** Which melting point does the source give for `O=C1Nc2ccc([N+](=O)[O-])cc2/C1=C(/Nc1ccc(CN2CC=CCC2)cc1)c1ccccc1` [Example 270, (Z)-3-{1-[4-(3,6-Dihydro-2H-pyridin-1-ylmethyl)-phenylamino]-1-phenyl-methylidene}-5-nitro-2-indolinone] here?
**A.** The melting point was 222 to 225 °C.

**Q.** Which melting point does the source give for `CN(C)CC(=O)Nc1ccc(N/C(=C2\C(=O)Nc3ccccc32)c2ccccc2)cc1` [Example 41, (Z)-3-[1-(4-dimethylaminomethylcarbonylamino-phenylamino)-1-phenyl-methylidene]-2-indolinone] here?
**A.** The melting point was 234 to 236 °C.

**Q.** With `CN(C)CCCc1ccc(N/C(=C2\C(=O)Nc3ccc([N+](=O)[O-])cc32)c2ccccc2)cc1` [Example 283, (Z)-3-{1-[4-(3-dimethylamino-propyl)-phenylamino]-1-phenyl-methylidene}-5-nitro-2-indolinone] as the compound, how does the melting point read?
**A.** The melting point was 269 °C (dec.).

**Q.** Which melting point does the source give for `CN(C)C(=O)COc1ccc(N/C(=C2\C(=O)Nc3ccccc32)c2ccccc2)cc1` [Example 291, (Z)-3-{1-[4-(dimethylaminocarbonylmethyloxy)-phenylamino]-1-phenyl-methylidene}-2-indolinone] here?
**A.** The melting point was 224 to 226 °C.

**Q.** With `CC(C)C(=O)N(CCN1CCOCC1)c1ccc(N/C(=C2\C(=O)Nc3ccccc32)c2ccccc2)cc1` [Example 350, (Z)-3-{1-[4-(N-(2-morpholinoethyl)-N-isopropylcarbonyl-amino)-phenylamino]-1-phenyl-methylidene}-2-indolinone] as the compound, how does the melting point read?
**A.** The melting point was 239 °C.

**Q.** Which melting point does the source give for `CC(=O)Nc1cccc(N/C(=C2\C(=O)Nc3ccccc32)c2ccccc2)c1` [Example 32, (Z)-3-[1-(3-acetylamino-phenylamino)-1-phenyl-methylidene]-2-indolinone] here?
**A.** The melting point was 285 to 288 °C.

**Q.** With `CCS(=O)(=O)N(CCCN(C)C)c1ccc(N/C(=C2\C(=O)Nc3ccccc32)c2ccccc2)cc1` [Example 316, (Z)-3-{1-[4-(N-(3-dimethylaminopropyl)-N-ethylsulphonyl-amino)-phenylamino]-1-phenyl-methylidene}-2-indolinone] as the compound, how does the melting point read?
**A.** Its melting point is 194 °C.
